The values below come from patent US12065427B2, “Heterocyclic compounds capable of activating STING” (BOEHRINGER INGELHEIM INTERNATIONAL GMBH, priority 2021, dated 2024).

The test system of data set [1] is Human STING (hSTING, residues 155-341). In words: Interaction with hSTING as determined by Differential Scanning Fluorimetry (DSF). The format is binding. The conditions noted are these: 100 μM test compounds, 5 μM target protein. On the procedure: Interaction with hSTING as Determined by Differential Scanning Fluorimetry (DSF)
In DSF, the temperature at which a protein unfolds, also called the melting temperature Tm, is measured by changes in fluorescence of a dye that binds to the hydrophobic parts of the protein. Tm shifts upon binding of a small molecule are correlated with the binding affinity of this small molecule. As target protein, Human STING (hSTING, residues 155-341, MW: 21578.4 Da; protein stock solution: c=1302 μM stock solution in 20 mM Tris, 100 mM NaCl, 2 mM TCEP pH 8.8) was used, as assay buffer 20 mM Tris, 150 mM NaCI pH7.5 was added where and as necessary.
Final concentrations of components in assay: 100 μM test compounds, 5 μM target protein, “5×” SYPR Orange (from stock solution SYPRO orange solution in DMSO (invitrogen cat.-no. S6650-500 ul), concentration “5000×”)
1) Dilutions of compound stock solutions (10 mM in DMSO) were prepared in assay buffer (20 mM Tris, 150 mM NaCl; pH7.5)
2) 5 μl fluorescent dye stock solution (5000×SYPRO Orange in DMSO) was mixed with 19 μl target protein (1302 μM) and 976 μl assay buffer.
3) 2 μl of this protein-dye-mixture (25×SYPRO Orange and 25 μM Protein) was added to 8 μl diluted compound solution as prepared in step 1. Final volume was 10 μl.
4) With every 20 compounds, two negative controls were measured.
5) The plates were prepared for duplicate measurement and centrifuged for 2 min at 1000 g.
6) For the measurement, a CFX384 Real-Time System (Bio-Rad) was used. The run consisted of 140 cycles with 0.5° C./cycle (temperature ramp 15 s/cycle, 25° C. to 95° C.).
Data analysis: The melting curves were processed in Bio-Rad CFX Manager. Peak type was set to “negative”. Two replicates of TM (melting temperature) measurements were averaged and the standard deviation was calculated.

The target in the next data set is T1, STING HAQ-variant (Homo sapiens, UniProt Q86WV6, G230A/H232R/R293Q/R71H).
T1 construct: parental THP1-Blue™ ISG cell lines (which express endogenously HAQ); host or cells: THP1-Blue ISG (parental, endogenous HAQ) or STING-KO clone re-transduced with HAQ (MSCV-ires-GFP-Blasti)
As to the kind of experiment: IRF-inducible SEAP reporter assay in THP1-Blue ISG cells, STING HAQ-variant. The format is cell-based. The conditions noted are these: STING HAQ-variant (parental or re-introduced), 24 hours incubation. An excerpt:
(§1) In Vitro Cytokine Induction Measured Via Activation of an Interferon Regulatory Factor Inducible Reporter Gene
(§2) Activation of the STING protein expressed in cell lines results in an increase of interferon production. By the stable integration of an interferon regulatory factor (IRF)-inducible SEAP gene (secreted embryonic alkaline phosphatase) reporter construct the functional interferon signaling pathway can be monitored. Using Invivogen's THP1-Blue™ ISG colorimetric enzyme assay and a suitable optical density (OD) reader the activity of SEAP can be detected and quantified. This technique could be used to characterize pharmacological modification of the STING pathway.
(§3) Several single nucleotide polymorphisms have been identified in the human STING gene. To determine the activity of the above described compounds, THP1-Blue™ ISG reporter cell lines expressing the different human STING variants have been generated. To do so, the endogenous human STING was first deleted using the CRISPR/CAS9 system: THP1-Blue ISG cells were electroporated with ALL-IN-ONE CRISPR plasmids targeting the STING gene (purchased from Sigma encoding the gRNA and GFP as a reporter gene for successful transduction). GFP positive cells then were sorted 24 h post transfection and expanded. Cells were then dispersed in semisolid methocel medium to allow single cell clone isolations. Clones were then screened for cGAMP responsiveness using the Quanti-Blue™ reporter assay. Non-responsive clones were subsequently analysed for STING loss by western blotting and sequencing of the STING locus.
(§4) For the overexpression of the human STING variants, a confirmed THP1-Blue™ ISG hSTING KO clone was transduced with individual retroviral plasmids (MSCV-ires-GFP-Blasti) encoding the allelic variants of hSTING (WT (H232R), HAQ, R232H, AQ and R293Q). Transduced cells were sorted for different levels of GFP fluorescence and STING allele expression was analysed by western blot.
(§5) Measurements of SEAP activity were performed in THP1-Blue™ ISG cells stably expressing the different human STING isoforms and the IRF-inducible SEAP reporter construct. Cells were cultivated in RPMI1640 medium with 10% fetal calf serum, 50 μg/ml Penicillin-Streptomycin, 100 μg/ml Zeocin, and 100 μg/ml Normocin in a 37°, 95% humidity and 5% CO2 incubator.
(§6) In preparation for the assay, the cells were distributed into the assay plates with a density of 10000 cells/15 μL per well. Compounds were prepared by an 8 point serial dilution in 50% aqueous DMSO and a final dilution step into medium to ensure a final DMSO concentration of 0.5% in the assay. 5 μL of diluted compounds were added to the plates, followed by a 24 hours incubation at 37° C.
(§7) At the day of the assay, 75 μl per well of Quanti-Blue™ reagent was added to all wells of the plate and the plate was incubated another 30 minutes at 37° C. The OD at 620 nm was measured on the EnVision reader (PerkinElmer).
(§8) EC50 values and Hill slopes were derived from 8-point four parametric non-linear curve fittings with the Megalab software (Boehringer Ingelheim) using the OD at 620 nm.
(§9) Data of EC50 values can be found in tables 2a-2e.
Data of EC50 values on STING HAQ-variant can be found in table 2a. Shown data below were either derived from the parental THP1-Blue™ ISG cell lines (which express endogenously HAQ) or from genetically engineered THP1-Blue™ ISG cell lines in which first STING has been knocked-out and the HAQ specific STING isoform has been re-introduced as described above.

The target in the next data set is T2, STING H232R-variant (Homo sapiens, UniProt Q86WV6, H232R).
T2 construct: expressed in transfected cells; host or cells: THP1-Blue ISG hSTING KO clone, retroviral MSCV-ires-GFP-Blasti
As to the kind of experiment: IRF-inducible SEAP reporter assay in THP1-Blue ISG cells, STING H232R-variant. The format is cell-based. The conditions noted are these: STING H232R-variant (WT), 24 hours incubation.
Text: as §1, §2, §3, §4, §5, §6, §7, §8, §9
Data of EC50 values on STING H232R-variant can be found in table 2b: […]

For another data set, the target named is T3, STING R232H-variant (Homo sapiens, UniProt Q86WV6).
T3 construct: expressed in transfected cells; host or cells: THP1-Blue ISG hSTING KO clone, retroviral MSCV-ires-GFP-Blasti
As to the kind of experiment: IRF-inducible SEAP reporter assay in THP1-Blue ISG cells, STING R232H-variant. The format is cell-based. The settings on record: 24 hours incubation.
Text: as §1, §2, §3, §4, §5, §6, §7, §8, §9
Data of EC50 values on STING R232H-variant can be found in table 2c: […]

For another data set, the target named is T4, STING R293Q-variant (Homo sapiens, UniProt Q86WV6, H232R/R293Q).
T4 construct: expressed in transfected cells; host or cells: THP1-Blue ISG hSTING KO clone, retroviral MSCV-ires-GFP-Blasti
In words: IRF-inducible SEAP reporter assay in THP1-Blue ISG cells, STING R293Q-variant. The format is cell-based. The conditions noted are these: 24 hours incubation.
Text: as §1, §2, §3, §4, §5, §6, §7, §8, §9
Data of EC50 values on STING R293Q-variant can be found in table 2d: […]

A further data set has as its target T5, STING AQ-variant (Homo sapiens, UniProt Q86WV6, G230A/H232R/R293Q).
T5 construct: expressed in transfected cells; host or cells: THP1-Blue ISG hSTING KO clone, retroviral MSCV-ires-GFP-Blasti
As to the kind of experiment: IRF-inducible SEAP reporter assay in THP1-Blue ISG cells, STING AQ-variant. The format is cell-based. The conditions noted are these: 24 hours incubation.
Text: as §1, §2, §3, §4, §5, §6, §7, §8, §9
Data of EC50 values on STING AQ-variant can be found in table 2e: […]

The nature of another data set: in vitro. The conditions noted are these: human, Caco-2, pH 7.4.

pEC50: −log10 of the molar value.

T2 sequence (Q86WV6 whole entry H232R): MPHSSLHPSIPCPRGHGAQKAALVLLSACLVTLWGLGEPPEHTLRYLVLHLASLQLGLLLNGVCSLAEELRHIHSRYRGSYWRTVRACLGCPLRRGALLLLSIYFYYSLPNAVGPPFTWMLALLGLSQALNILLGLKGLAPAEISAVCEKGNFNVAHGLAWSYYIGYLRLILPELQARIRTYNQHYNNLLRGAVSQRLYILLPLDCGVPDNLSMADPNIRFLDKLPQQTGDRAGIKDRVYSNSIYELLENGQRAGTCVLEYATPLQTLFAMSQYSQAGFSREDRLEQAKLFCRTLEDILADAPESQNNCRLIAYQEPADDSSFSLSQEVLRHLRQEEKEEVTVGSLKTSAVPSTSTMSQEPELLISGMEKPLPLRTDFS
T4 sequence (Q86WV6 whole entry H232R/R293Q): as the sequence (Q86WV6 whole entry H232R) above, with R293Q counted along it
T3 sequence (Q86WV6 whole entry, stated change not applied): as the sequence (Q86WV6 whole entry H232R) above, with R232H counted along it
T5 sequence (Q86WV6 whole entry G230A/H232R/R293Q): as the sequence (Q86WV6 whole entry H232R) above, with G230A, R293Q counted along it
T1 sequence (Q86WV6 whole entry R71H/G230A/H232R/R293Q): as the sequence (Q86WV6 whole entry H232R) above, with R71H, G230A, R293Q counted along it

Consider `CC(=O)N1CCN(c2ccc(-n3nc(-c4cccc5nn(C)cc45)c4cccc(C)c43)cn2)CC1` [compound 15, 1-[4-(5-{2′,7-dimethyl-1H,2′H-[3,4′-biindazol]-1-yl}pyridin-2-yl)piperazin-1-yl]ethan-1-one], for which, in data set [1], the “thermal shift (ΔTm)” value amounted to 21 K. The pEC50 was 6.00 at STING HAQ-variant; 6.70 on STING H232R-variant; 6.70 on STING R232H-variant; 6.15 on STING R293Q-variant; 6.15 on STING AQ-variant. The Papp A→B at 10 μM in “in vitro” is 26 ×10⁻⁶ cm/s. Further, the efflux ratio at 10 μM in “in vitro” came to 0.5.
Consider `Cn1cc2c(-c3nn(-c4ccc(N5CC6C(C5)C6C(=O)O)nc4)c4c(Br)cccc34)cccc2n1` (stereo not drawn) [compound 64, 3-(5-{7-bromo-2′-methyl-1H,2′H-[3,4′-biindazol]-1-yl}pyridin-2-yl)-3-azabicy-clo[3.1.0]hexane-6-car-boxylic acid], for which the pEC50 is 6.15 on STING HAQ-variant, 6.70 at STING H232R-variant, 6.22 on STING R232H-variant and 6.30 on STING R293Q-variant.
The corresponding values for `Cc1cccc2c(-c3cccc4nn(C)cc34)nn(-c3ccc(N4CCS(=O)(=O)CC4)nc3)c12` [Example #5, 4-(5-{2,7-dimethyl-1H,2′H-[3,4′-biindazol]-1-yl}pyri-din-2-yl)-1λ^6-thiomorpho-line-1,1-dione] are 5.85, 6.30, 6.00 and 5.92.
Consider `CCc1cccc2c(-c3cccc4nn(C)cc34)nn(-c3ccc(N4CC5C(C4)C5C(=O)O)nc3)c12` (stereo not drawn) [compound 65, 3-(5-{7-ethyl-2′-methyl-1H,2′H-[3,4′-biindazol]-1-yl}pyridin-2-yl)-3-azabicy-clo[3.1.0]hexane-6-car-boxylic acid], for which the “thermal shift (ΔTm)” value in data set [1] is 21 K. Also, the pEC50 was 6.70 at STING HAQ-variant; 7.00 at STING H232R-variant; 7.00 at STING R232H-variant; 7.00 at STING R293Q-variant; 7.00 at STING AQ-variant.
With `Cc1cccc2c(-c3cccc4nn(C)cc34)nn(-c3ccc(N4CCN(C=O)CC4)nc3)c12` [compound 51, 4-(5-(2′,7-dimethyl-1H,2′H-[3,4′-biindazol]-1-yl)pyridin-2-yl)piperazine-1-carbaldehyde], in data set [1], the “thermal shift (ΔTm)” value was 15 K. The pEC50 on STING HAQ-variant was 6.52; at STING H232R-variant, 7.30; on STING R232H-variant, 7.30; on STING R293Q-variant, 6.52; on STING AQ-variant, 6.70.
Consider `Cc1cccc2c(-c3cccc4nn(C)cc34)nn(-c3ccc(NCc4cncnc4)nc3)c12` [compound 24, 5-{2′,7-dimethyl-1H,2′H-[3,4′-biindazol]-1-yl}-N-[(pyrimidin-5-yl)methyl]pyridin-2-amine], for which the pEC50 on STING HAQ-variant was 5.57; at STING H232R-variant it was 5.70; on STING R232H-variant, 5.64; on STING R293Q-variant, 5.66.
As to `Cc1cccc2c(-c3cccc4nn(C)cc34)nn(-c3ccc(N4CCn5cncc5C4)nc3)c12` [compound 12, 1-(6-{5H,6H,7H,8H-imidazo[1,5-a]pyrazin-7-yl}pyridin-3-yl)-2′,7-dimethyl-1H,2'H-3,4′-biindazole], the “thermal shift (ΔTm)” value in data set [1] worked out at 21 K. Further, the pEC50 at STING HAQ-variant is 5.72; on STING H232R-variant, 6.40; at STING R232H-variant, 6.22; at STING R293Q-variant, 5.68. For the same compound, the Papp A→B at 10 μM in “in vitro” amounted to 11 ×10⁻⁶ cm/s. Besides, the efflux ratio at 10 μM in the data set “in vitro” is 0.4.
Turning to `CCc1cccc2c(-c3cccc4nn(C)cc34)nn(-c3ccc(N4CCC(C(=O)O)CC4)nc3)c12` [Example #66, 1-(5-{7-ethyl-2′-methyl-1H,2′H-[3,4′-biindazol]-1-yl}pyridin-2-yl)piperidine-4-carboxylic acid], the “thermal shift (ΔTm)” value in data set [1] was determined as 16 K. Also, the pEC50 is 5.80 on STING HAQ-variant; 6.52 at STING H232R-variant; 6.70 on STING R232H-variant; 6.15 at STING R293Q-variant; 6.10 at STING AQ-variant.
Regarding `Cc1cccc2c(-c3cccc4nn(C)cc34)nn(-c3ccc(N4CC5C(C4)C5C(N)=O)nc3)c12` (stereo not drawn) [compound 72, 3-(5-{2′,7-dimethyl-1H,2′H-[3,4′-biindazol]-1-yl}pyridin-2-yl)-3-azabicyclo[3.1.0]hexane-6-carboxamide], in data set [1], the “thermal shift (ΔTm)” value was found to be 18 K. Further, the pEC50 on STING HAQ-variant is 5.74; on STING H232R-variant it was 6.22; on STING R232H-variant, 6.52; on STING R293Q-variant it was 6.15; on STING AQ-variant, 6.10.
Turning to `Cc1cccc2c(-c3cccc4nn(C)cc34)nn(-c3ccc(N4CC5(CN(C=O)C5)C4)nc3)c12` [compound 54, 6-(5-{2′,7-dimethyl-1H,2′H-[3,4′-biinda-zol]-1-yl}pyridin-2-yl)-2,6-diaza-spiro[3.3]heptane-2-carbaldehyde], the “thermal shift (ΔTm)” value in data set [1] was 21 K. In addition, the figures for the pEC50 on STING HAQ-variant, at STING H232R-variant and at STING AQ-variant were 5.68, 6.52 and 5.28, respectively. In the data set “in vitro”, this compound gave a Papp A→B at 10 μM of 38 ×10⁻⁶ cm/s. Moreover, the efflux ratio at 10 μM in the data set “in vitro” worked out at 0.8.
